Measured values as given in PubChem BioAssay (NCI).
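A five-concentration, 48-hour dose response in 96-well plates underlies each endpoint, interpolated linearly between surrounding concentrations. At the GI50, growth is halved. The concentration for full growth arrest is given as TGI.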

Tests used:
Test in all cases: NCI tumour cell line growth inhibition, 48 h
[1] = tested on: ACHN renal
[2] = tested on: DU-145 prostate
[3] = tested on: MCF7 breast
[4] = tested on: T-47D breast
[5] = tested on: HL-60(TB) leukemia
[6] = tested on: HOP-92 NSCLC
[7] = tested on: OVCAR-8 ovarian
[8] = tested on: LOX IMVI melanoma
[9] = tested on: BT-549 breast
[10] = tested on: SNB-75 CNS
[11] = tested on: HCT-15 colon
[12] = tested on: NCI/ADR-RES ovarian
[13] = tested on: SK-OV-3 ovarian
[14] = tested on: UACC-62 melanoma
[15] = tested on: NCI-H226 lung
[16] = tested on: OVCAR-5 ovarian
[17] = tested on: UO-31 renal
[18] = tested on: SN12C renal
[19] = tested on: OVCAR-3 ovarian
[20] = tested on: M14 melanoma
[21] = tested on: HCC-2998 colon
[22] = tested on: HT29 colon
[23] = tested on: CCRF-CEM leukemia
[24] = tested on: KM12 colon
[25] = tested on: MOLT-4 leukemia
[26] = tested on: NCI-H522 lung
[27] = tested on: NCI-H460 lung
[28] = tested on: RPMI-8226 leukemia
[29] = tested on: EKVX NSCLC
[30] = tested on: SR leukemia
[31] = tested on: K-562 leukemia
[32] = tested on: NCI-H23 lung
[33] = tested on: MDA-MB-231 breast
[34] = tested on: SK-MEL-28 melanoma
[35] = tested on: SK-MEL-2 melanoma
[36] = tested on: SW-620 colon
[37] = tested on: SNB-19 CNS
[38] = tested on: 786-0 renal
[39] = tested on: SK-MEL-5 melanoma
[40] = tested on: UACC-257 melanoma
[41] = tested on: HS 578T breast
[42] = tested on: U251 CNS
[43] = tested on: HCT-116 colon
[44] = tested on: OVCAR-4 ovarian
[45] = tested on: SF-539 CNS
[46] = tested on: HOP-62 NSCLC
[47] = tested on: SF-268 CNS
[48] = tested on: RXF 393 renal
[49] = tested on: MALME-3M melanoma
[50] = tested on: IGROV1 ovarian
[51] = tested on: A498 renal
[52] = tested on: COLO 205 colon
[53] = tested on: MDA-MB-435
[54] = tested on: SF-295 CNS
[55] = tested on: PC-3 prostate
[56] = tested on: A549 NSCLC

## Clc1ccc(Nc2nnc(CNc3ccccc3)c3ccccc23)cc1
[1]
  GI50: 3.1 µM
  TGI: > 25 µM
[2]
  GI50: 4.55 µM
  TGI: > 25 µM
[3]
  GI50: 2.68 µM
  TGI: 11.1 µM
[4]
  GI50: 1.17 µM
  TGI: 8.28 µM
[5]
  GI50: 3.71 µM
  TGI: 13 µM
[6]
  GI50: 0.777 µM
  TGI: 6.3 µM
[7]
  GI50: 4.63 µM
  TGI: 16.8 µM
[8]
  GI50: 1.57 µM
  TGI: 4.97 µM
[9]
  GI50: 2.93 µM
  TGI: 8.2 µM
[10]
  GI50: 0.871 µM
  TGI: 7.05 µM
[11]
  GI50: 2.99 µM
  TGI: 9.39 µM
[12]
  GI50: 4.12 µM
  TGI: 17 µM
[13]
  GI50: 3.17 µM
  TGI: 11.4 µM
[14]
  GI50: 1.25 µM
  TGI: 5.7 µM
[15]
  GI50: 2.52 µM
  TGI: 7.98 µM
[16]
  GI50: 4.92 µM
  TGI: > 25 µM
[17]
  GI50: 1.36 µM
  TGI: 6.66 µM
[18]
  GI50: 3.95 µM
  TGI: 18.9 µM
[19]
  GI50: 3.51 µM
  TGI: 8.69 µM
[20]
  GI50: 1.74 µM
  TGI: 6.65 µM
[21]
  GI50: 4.85 µM
  TGI: 15.9 µM
[22]
  GI50: 1.46 µM
  TGI: 6.36 µM
[23]
  GI50: 3.53 µM
  TGI: 17.6 µM
[24]
  GI50: 3.05 µM
  TGI: 9.92 µM
[25]
  GI50: 1.71 µM
  TGI: 8.74 µM
[26]
  GI50: 0.684 µM
  TGI: 4.62 µM
[27]
  GI50: 3.21 µM
  TGI: 9.97 µM
[28]
  GI50: 2.1 µM
  TGI: 7.71 µM
[29]
  GI50: 1.61 µM
  TGI: 15 µM
[30]
  GI50: 1.75 µM
  TGI: 12.3 µM
[31]
  GI50: 1.71 µM
  TGI: 14.5 µM
[32]
  GI50: 2.5 µM
  TGI: 16.4 µM
[33]
  GI50: 1.95 µM
  TGI: 8.73 µM
[34]
  GI50: 3.67 µM
  TGI: 10.5 µM
[35]
  GI50: 2.16 µM
  TGI: 5.83 µM
[36]
  GI50: 3.84 µM
  TGI: 11.1 µM
[37]
  GI50: 4.71 µM
  TGI: 22.7 µM
[38]
  GI50: 4.01 µM
  TGI: 12.5 µM
[39]
  GI50: 2.08 µM
  TGI: 5.27 µM
[40]
  GI50: 2.74 µM
  TGI: 6.87 µM
[41]
  GI50: 2.95 µM
  TGI: 12.9 µM
[42]
  GI50: 3.28 µM
  TGI: 7.33 µM
[43]
  GI50: 1.2 µM
  TGI: 5.02 µM
[44]
  GI50: 3 µM
  TGI: > 25 µM
[45]
  GI50: 3.67 µM
  TGI: 8.09 µM
[46]
  GI50: 2.86 µM
  TGI: 8.84 µM
[47]
  GI50: 3.28 µM
  TGI: 14.5 µM
[48]
  GI50: 2.6 µM
  TGI: 8.12 µM
[49]
  GI50: 2.66 µM
  TGI: 9.92 µM
[50]
  GI50: 1.93 µM
  TGI: 10.7 µM
[51]
  GI50: 1.45 µM
  TGI: 6.06 µM
[52]
  GI50: 0.915 µM
  TGI: 5.39 µM
[53]
  GI50: 1.47 µM
  TGI: 7.88 µM
[54]
  GI50: 2.98 µM
  TGI: 8.77 µM
[55]
  GI50: 1.91 µM
  TGI: 14.4 µM
[56]
  GI50: 3.17 µM
  TGI: 20 µM
